Where a chain is given by its changes, count along the chain named. “And” between values parts separate entries of the source, which are not always exact repeats. Identical values can stand only once.
How the values were obtained:
[1] = biological target: T1, E129V mutant human TP receptor (Homo sapiens, UniProt P21731, E129V); experiment: [3H]SQ29,548 radioligand binding (mixed-type and heterologous competition), E129V mutant; settings: HEK293 cells
T1 construct: expressed in transfected cells; host or cells: HEK293
T1 sequence (P21731 1-343 E129V): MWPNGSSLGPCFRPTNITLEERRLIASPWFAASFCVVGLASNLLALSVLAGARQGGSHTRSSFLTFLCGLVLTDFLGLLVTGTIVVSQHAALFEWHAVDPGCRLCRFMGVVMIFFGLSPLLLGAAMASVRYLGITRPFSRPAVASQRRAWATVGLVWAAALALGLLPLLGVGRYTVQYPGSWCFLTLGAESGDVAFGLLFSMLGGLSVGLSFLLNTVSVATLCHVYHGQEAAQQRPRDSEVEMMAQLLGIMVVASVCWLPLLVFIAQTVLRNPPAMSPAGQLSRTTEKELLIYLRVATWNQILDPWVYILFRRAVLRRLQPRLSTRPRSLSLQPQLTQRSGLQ
Method: (§1) Receptor expression and functional activity were monitored 48 hours after transfection. […] Heterologous competition studies involved concentrations of the indicated unlabeled ligands extending from 0.1 nM to 30 µM. After 30 min incubation at 25 °C, the reaction was stopped by aspiration of the medium, cells were washed with ice-cold PBS containing 0.2% (w/v) BSA and lysed in 0.5 N NaOH. Radioactivity was measured by liquid scintillation counting. Binding data were analyzed as described in Data and Statistical Analysis. Quantification of the total labeled inositol phosphates (IP) accumulation was performed using a conventional gravity flow column chromatography, as described previously, [19]. Briefly, the day before the assay, cells were labeled with 0,5 µCi of [myo-2-^3H]inositol (17 Ci/mmol) for 18–20 hours in serum-free, inositol-free DMEM containing 20 mM HEPES buffer, pH 7.4, and 0.5% (w/v) Albumax I. The day of the assay, media was replaced with serum-free, inositol-free DMEM containing 25 mM LiCl and cells stimulated for 30 min with the indicated agonists. After removal of the medium, cells were lysed with 10 mM formic acid and lysates were applied onto an anion exchange AG 1X-8 column, formate form, 200–400 mesh. The total IP fraction was then eluted with 2 M ammonium formate/formic acid buffer at pH 5 and radioactivity determined by liquid scintillation counting. Rescue experiments were performed essentially as above, except for a 18 hours incubation step with 1 µΜof […] followed by its removal by washing three times with ice-cold PBS containing 1 mM MgCl2 and 0.1 mM CaCl2 before starting the experiment.
(§2) All average results are presented as mean±S.E. When indicated, ANOVA followed by post-hoc test for multiple comparisons was performed. Data from radioligand binding were evaluated by a nonlinear, least-squares curve-fitting procedure using GraphPad Prism version 4, implemented with the n-ligand m-binding site model, as described in the LIGAND computer program. Concentration-response curves were evaluated using Prism 4, which use the four parameters logistic model as described in the ALLFIT program. Parameter errors are all expressed in percentage coefficient of variation (%CV) and calculated by simultaneous analysis of at least two different independent experiments performed in duplicate or triplicate. Parameter comparison has been performed on the base of the F test for extra sum of square principle. All curves shown are computer generated.
Thus, transfection conditions were adjusted to secure equivalent levels of receptor expression for WT and mutants as previously described, [17], [19]. […] All the experiments were conducted within this range of receptor expression, if not specified differently.

[2] = biological target: T1, E129V mutant human TP receptor; experiment: Total inositol phosphate (IP) accumulation, E129V mutant; format: cell-based; settings: HEK293 cells
Method: as §1, §2

[3] = biological target: T2, WT human TP receptor (Homo sapiens, UniProt P21731); experiment: BRET2 measurement of Gq protein activation, WT receptor; format: cell-based; settings: HEK293 cells, value ±%CV
T2 construct: expressed in transfected cells; host or cells: HEK293
T2 sequence (P21731 1-343): T1 sequence (P21731 1-343 E129V) with V129E
Text: HEK 293 cells were co-transfected with vectors expressing the GFP^10-Gγ2, Gβ1, Gαq-Rluc8 and WT or E129V mutant of TP receptor to investigate direct G protein activation with an intramolecular bioluminescent resonance energy transfer (BRET^2) strategy. To avoid possible variations in the BRET signaling resulting from fluctuation in the relative expression levels of the energy donor and acceptor, we designed transfection conditions to maintain constant GFP^10 and Rluc8 expression and their ratios in each experimental set. Total fluorescence and luminescence were directly determined in an aliquot of the transfected cells using an Infinite F500 microplate reader (Tecan, Milan, Italy) as previously described. […] 48 hours after transfection, cells were washed once with PBS, detached, and resuspended in PBS+0.1% (w/v) glucose at room temperature. Cells were then distributed (80 µg of proteins per well) into a 96-well microplate (Wallac, Perkin Elmer, Monza, Italy) and incubated in the presence or absence of increasing concentrations of ligands for 2 min before the addition of the luciferase substrate Coelenterazine 400a (5 µM; Biotium, Hayward, CA). BRET signal between Rluc8 and GFP^10 was measured immediately after the addition of the Rluc substrate in the microplate reader. The BRET signal was calculated as the ratio of the light emitted by GFP^10 (510–540 nm) over the light emitted by Rluc8 (370–450 nm). The changes in BRET induced by the ligands were expressed as Òagonist-induced BRETÓ, obtained by subtracting the BRET signal detected in the presence of PBS by the BRET signal detected in the presence of the specific ligand.
as §2
This recorded real time conformational changes between the α and the βγ subunits within the Gq protein, where a decrease of the BRET signal provoked by agonist-induced receptor activation is indicative of a conformational reorganization leading the Gα-Gβγ interface to open, reflects the initial event of Gq protein activation, [23] (Figure 6A).

[4] = biological target: T1, E129V mutant human TP receptor; experiment: BRET2 measurement of Gq protein activation, E129V mutant; format: cell-based; settings: HEK293 cells
Method: as §2

[5] = biological target: T1, E129V mutant human TP receptor; parameters: method as in PMID 20383734; settings: E129V vs WT; cited from earlier work
[6] = E129V, 30 min stimulation, value ±%CV

Ki ([1]; E129V, competition vs 1 nM [3H]SQ29,548, 25°C 30 min, value ±%CV): 16.3 ± 18 nM
Affinity ratio (Ki WT over Ki E129V) ([1]; WT vs E129V): 10 and 10.4
EC50 [2, 6]: 4.47 nM
Emax, total IP [2, 6]: 18115±5 dpm/wel
Activity ratio (EC50 WT over EC50 E129V), total IP ([2]; WT vs E129V): 22.1
EC50 ([3]; Gαq-Rluc8/GFP10-Gγ2/Gβ1, 2 min ligand): 345 ± 14 nM
Emax, agonist-induced BRET [3]: −0.07±3
EC50 ([4]; E129V, Gαq-Rluc8/GFP10-Gγ2/Gβ1, 2 min ligand, value ±%CV): 4.53 nM
Activity ratio (EC50 WT over EC50 E129V), BRET ([4]; WT vs E129V): 76
SMILES: CCCCC[C@H](O)/C=C/[C@@H]1[C@@H](C/C=C\CCCC(=O)O)[C@H]2CO[C@@H]1C2 (relative stereo) [U46619, [1R-[1α,4α,5β(Z),6α(1E,3S*)]]-7-[6-(3-hydroxy-1-octenyl)-2-oxabicyclo[2.2.1]hept-5-yl]-5-heptenoic acid]
Fold lower EC50 than WT, total IP formation [5]: 10 fold

Source: publication PMC3610872, “Full and Partial Agonists of Thromboxane Prostanoid Receptor Unveil Fine Tuning of Receptor Superactive Conformation and G Protein Activation” (PLoS ONE, 2013)
